Results from PubChem BioAssay AID1745844 (Carcinogenic Potency Database (CPDB), 2022).
Several values for one entry are separate records, joined by “and”; a condition that tells them apart may be missing. Identical values can stand only once. Activity calls are given as the source filed them. No rule for the calls is given here.

Tested on: rodent lifetime carcinogenesis bioassay, tumor incidence TD50
Assay: chronic cancer bioassays in animals – CPDB, compiled studies (AID 1745844)
[1] = mouse, strain B6C3F1, males, by gavage, site: any site (literature study), lesion: several types, types named in the paper, dosed 103 weeks, study length 104 weeks
[2] = rat, strain Sprague-Dawley, females, in feed, site: mammary tissue, wider than the gland, lesion: malignant tumor, dosed 104 weeks, study length 104 weeks

In the case of `O=C(Nc1ccc([N+](=O)[O-])cc1Cl)c1cc(Cl)ccc1O`, the carcinogen call (mouse, strain B6C3F1, females, in feed, site: any site (literature study), lesion: several types, types named in the paper, dosed 78 weeks, study length 91 weeks) is reported as “negative (inactive)”, the TD50 (mouse, strain B6C3F1, males, in feed, site: any site (literature study), lesion: several types, types named in the paper, dosed 78 weeks, study length 91 weeks) is reported as 175 mg/kg/day and the TD50 (rat, strain Osborne-Mendel, females, in feed, site: any site (literature study), lesion: several types, types named in the paper, dosed 78 weeks, study length 110 weeks) is reported as 2070 mg/kg/day. The TD50 (rat, strain Osborne-Mendel, females, in feed, site: liver, lesion: hepatocellular adenoma + hepatocellular carcinoma + neoplastic nodule, dosed 78 weeks, study length 110 weeks) was 13300 mg/kg/day, the TD50 (rat, strain Osborne-Mendel, females, in feed, site: thyroid gland, lesion: c-cell adenoma + c-cell carcinoma, dosed 78 weeks, study length 110 weeks) was 6670 mg/kg/day and the TD50 (rat, strain Osborne-Mendel, females, in feed, site: uterus, lesion: endometrial stromal polyp, dosed 78 weeks, study length 110 weeks) was 5060 mg/kg/day (inactive). The carcinogen call (rat, strain Osborne-Mendel, males, in feed, site: any site (literature study), lesion: several types, types named in the paper, dosed 78 weeks, study length 110 weeks) was “negative (inactive)”.
`C[C@@H]1O[C@@]2(CS1)CN1CCC2CC1` was tested, and the carcinogen call (rat, strain F344/DuCrj, females, by gavage, site: liver, lesion: one or several types, types not named, dosed 52 weeks, study length 52 weeks) was “negative (inactive)” and the carcinogen call (rat, strain F344/DuCrj, males, by gavage, site: liver, lesion: one or several types, types not named, dosed 52 weeks, study length 52 weeks) was “negative (inactive)”.
In the case of `Nc1ccc(N=Nc2ccc(N)cc2)cc1`, the carcinogen call (mouse, strain BALB/cLacDp, females, in feed, site: liver, lesion: several types, types named in the paper, dosed 60 weeks, study length 132 weeks) is reported as “negative (inactive)”, the TD50 (mouse, strain BALB/cLacDp, females, in feed, site: lung, lesion: several types, types named in the paper, dosed 60 weeks, study length 132 weeks) is reported as 240 mg/kg/day (inactive) and the carcinogen call (mouse, strain BALB/cLacDp, males, in feed, site: liver, lesion: several types, types named in the paper, dosed 60 weeks, study length 132 weeks) is reported as “negative (inactive)”. For the same compound, the TD50 (mouse, strain BALB/cLacDp, males, in feed, site: lung, lesion: several types, types named in the paper, dosed 60 weeks, study length 132 weeks) was 213 mg/kg/day (inactive).
`CCCCCl` was tested, and the carcinogen call (mouse, strain B6C3F1, females, by gavage, site: any site (literature study), lesion: several types, types named in the paper, dosed 103 weeks, study length 104 weeks) was “negative (inactive)”, the TD50 (mouse, strain B6C3F1, females, by gavage, site: liver, lesion: hepatocellular adenoma + hepatocellular carcinoma + neoplastic nodule, dosed 103 weeks, study length 105 weeks) was 1380 mg/kg/day and the TD50 (mouse, strain B6C3F1, females, by gavage, site: lung, lesion: alveolar/bronchiolar adenoma + alveolar/bronchiolar carcinoma, dosed 103 weeks, study length 104 weeks) was 13100 mg/kg/day. For the same compound, the TD50 (mouse, strain B6C3F1, females, by gavage, site: lung, lesion: alveolar/bronchiolar adenoma + alveolar/bronchiolar carcinoma, dosed 103 weeks, study length 105 weeks) was 1160 mg/kg/day, the TD50 (mouse, strain B6C3F1, females, by gavage, site: lung, lesion: alveolar/bronchiolar carcinoma, dosed 103 weeks, study length 105 weeks) was 1710 mg/kg/day (inactive) and the TD50 [1] was 423 mg/kg/day. For the same compound, the carcinogen call [1] was “negative (inactive)”, the TD50 (mouse, strain B6C3F1, males, by gavage, site: bone marrow + kidney/pelvis + liver + multiple organs + omentum + spleen + thorax, lesion: hemangiosarcoma, dosed 103 weeks, study length 104 weeks) was 2830 mg/kg/day and the TD50 (mouse, strain B6C3F1, males, by gavage, site: liver, lesion: hepatocellular adenoma + hepatocellular carcinoma + neoplastic nodule, dosed 103 weeks, study length 104 weeks) was 808 mg/kg/day and 623 mg/kg/day. The TD50 (mouse, strain B6C3F1, males, by gavage, site: liver, lesion: hepatocellular adenoma + hepatocellular carcinoma, dosed 103 weeks, study length 104 weeks) was 808 mg/kg/day (inactive), the TD50 (mouse, strain B6C3F1, males, by gavage, site: lung, lesion: alveolar/bronchiolar adenoma + alveolar/bronchiolar carcinoma, dosed 103 weeks, study length 104 weeks) was 3190 mg/kg/day and the TD50 (rat, strain Fischer 344, females, by gavage, site: any site (literature study), lesion: several types, types named in the paper, dosed 103 weeks, study length 105 weeks) was 100 mg/kg/day (inactive). The TD50 (rat, strain Fischer 344, females, by gavage, site: liver, lesion: hepatocellular adenoma + hepatocellular carcinoma + neoplastic nodule, dosed 103 weeks, study length 105 weeks) was 1510 mg/kg/day, the TD50 (rat, strain Fischer 344, males, by gavage, site: any site (literature study), lesion: several types, types named in the paper, dosed 103 weeks, study length 104 weeks) was 40.5 mg/kg/day and the TD50 (rat, strain Fischer 344, males, by gavage, site: testis, lesion: interstitial-cell tumor, dosed 103 weeks, study length 104 weeks) was 45.1 mg/kg/day (inactive).
`CC(C)C(C(=O)OC(C#N)c1cccc(Oc2ccccc2)c1)c1ccc(Cl)cc1` (configuration not stated) was tested, and the TD50 (mouse, strain B6C3F1, females, in feed, site: any site (literature study), lesion: one or several types, types not named, dosed 104 weeks, study length 104 weeks) was 173 mg/kg/day (inactive), the carcinogen call (mouse, strain B6C3F1, females, in feed, site: liver, lesion: hepatocellular adenoma, dosed 104 weeks, study length 104 weeks) was “negative (inactive)” and the carcinogen call (mouse, strain B6C3F1, females, in feed, site: liver, lesion: hepatocellular carcinoma, dosed 104 weeks, study length 104 weeks) was “negative (inactive)”. The carcinogen call (mouse, strain B6C3F1, females, in feed, site: lung, lesion: bronchiolar adenoma, dosed 104 weeks, study length 104 weeks) was “negative (inactive)”, the carcinogen call (mouse, strain B6C3F1, females, in feed, site: lung, lesion: bronchogenic carcinoma, dosed 104 weeks, study length 104 weeks) was “negative (inactive)” and the TD50 (mouse, strain B6C3F1, males, in feed, site: any site (literature study), lesion: one or several types, types not named, dosed 104 weeks, study length 104 weeks) was 251 mg/kg/day (inactive). For the same compound, the carcinogen call (mouse, strain B6C3F1, males, in feed, site: liver, lesion: hepatocellular adenoma, dosed 104 weeks, study length 104 weeks) was “negative (inactive)”, the carcinogen call (mouse, strain B6C3F1, males, in feed, site: liver, lesion: hepatocellular carcinoma, dosed 104 weeks, study length 104 weeks) was “negative (inactive)” and the carcinogen call (mouse, strain B6C3F1, males, in feed, site: lung, lesion: bronchiolar adenoma, dosed 104 weeks, study length 104 weeks) was “negative (inactive)”. The carcinogen call (mouse, strain B6C3F1, males, in feed, site: lung, lesion: bronchogenic carcinoma, dosed 104 weeks, study length 104 weeks) was “negative (inactive)”, the carcinogen call (mouse, strain B6C3F1, males, in feed, site: skin, lesion: fibrosarcoma, dosed 104 weeks, study length 104 weeks) was “negative (inactive)” and the TD50 (mouse, strain C57BL/6, females, by gavage, site: all sites, lesion: lymphoma, dosed 104 weeks, study length 114 weeks) was 384 mg/kg/day (inactive). For the same compound, the TD50 (mouse, strain C57BL/6, females, by gavage, site: any site (literature study), lesion: one or several types, types not named, dosed 104 weeks, study length 114 weeks) was 435 mg/kg/day (inactive), the carcinogen call (mouse, strain C57BL/6, females, by gavage, site: liver, lesion: liver-cell tumor, dosed 104 weeks, study length 114 weeks) was “negative (inactive)” and the carcinogen call (mouse, strain C57BL/6, females, by gavage, site: lung, lesion: adenoma, dosed 104 weeks, study length 114 weeks) was “negative (inactive)”. The TD50 (mouse, strain C57BL/6, males, by gavage, site: all sites, lesion: lymphoma, dosed 104 weeks, study length 114 weeks) was 659 mg/kg/day (inactive), the carcinogen call (mouse, strain C57BL/6, males, by gavage, site: any site (literature study), lesion: one or several types, types not named, dosed 104 weeks, study length 114 weeks) was “negative (inactive)” and the TD50 (mouse, strain C57BL/6, males, by gavage, site: liver, lesion: liver-cell tumor, dosed 104 weeks, study length 114 weeks) was 328 mg/kg/day (inactive). For the same compound, the carcinogen call (mouse, strain C57BL/6, males, by gavage, site: lung, lesion: adenoma, dosed 104 weeks, study length 114 weeks) was “negative (inactive)”, the carcinogen call (rat, strain Sprague-Dawley, females, in feed, site: liver, lesion: round-cell sarcoma, dosed 104 weeks, study length 104 weeks) was “negative (inactive)” and the TD50 (rat, strain Sprague-Dawley, females, in feed, site: mammary gland, lesion: fibroadenoma, dosed 104 weeks, study length 104 weeks) was 58 mg/kg/day (inactive). For the same compound, the TD50 (rat, strain Sprague-Dawley, females, in feed, site: mammary gland, lesion: fibroma, dosed 104 weeks, study length 104 weeks) was 2.55 mg/kg/day (inactive), the TD50 (rat, strain Sprague-Dawley, females, in feed, site: mammary tissue, wider than the gland, lesion: benign tumor, dosed 104 weeks, study length 104 weeks) was 43.7 mg/kg/day (inactive) and 247 mg/kg/day (inactive) and the TD50 [2] was 150 mg/kg/day (inactive). For the same compound, the carcinogen call [2] was “negative (inactive)”, the TD50 (rat, strain Sprague-Dawley, males, in feed, site: subcutaneous tissue, lesion: fibrosarcoma, dosed 104 weeks, study length 104 weeks) was 5.04 mg/kg/day (inactive) and the TD50 (rat, strain Sprague-Dawley, males, in feed, site: subcutaneous tissue, lesion: spindle-cell sarcoma, dosed 104 weeks, study length 104 weeks) was 266 mg/kg/day (inactive).
With `Nc1ccc(N(CCO)CCO)cc1` the TD50 (rat, strain F344/DuCrj, females, in feed, site: liver, lesion: hepatocellular adenoma, dosed 104 weeks, study length 104 weeks) was 7310 mg/kg/day (inactive), the carcinogen call (rat, strain F344/DuCrj, males, in feed, site: liver, lesion: hepatocellular adenoma, dosed 104 weeks, study length 104 weeks) was “negative (inactive)” and the carcinogen call (rat, strain F344/DuCrj, males, in feed, site: liver, lesion: hepatocellular carcinoma, dosed 104 weeks, study length 104 weeks) was “negative (inactive)”.
Work on `CC(C)n1c(/C=C/[C@H](O)C[C@H](O)CC(=O)O)c(-c2ccc(F)cc2)c2ccccc21` yielded a TD50 (rat, strain Charles River CD (Sprague-Dawley), females, by gavage, site: liver, lesion: hepatocellular adenoma, dosed 104 weeks, study length 104 weeks) of 2780 mg/kg/day, a TD50 (rat, strain Charles River CD (Sprague-Dawley), females, by gavage, site: liver, lesion: hepatocellular carcinoma, dosed 104 weeks, study length 104 weeks) of 916 mg/kg/day and a TD50 (rat, strain Charles River CD (Sprague-Dawley), females, by gavage, site: stomach, lesion: papilloma, dosed 104 weeks, study length 104 weeks) of 916 mg/kg/day. For the same compound, the TD50 (rat, strain Charles River CD (Sprague-Dawley), males, by gavage, site: stomach, lesion: papilloma, dosed 104 weeks, study length 104 weeks) was 610 mg/kg/day, the TD50 (rat, strain Charles River CD (Sprague-Dawley), males, by gavage, site: stomach, lesion: squamous-cell carcinoma, dosed 104 weeks, study length 104 weeks) was 919 mg/kg/day and the TD50 (rat, strain Charles River CD (Sprague-Dawley), males, by gavage, site: thyroid gland, lesion: follicular adenocarcinoma, dosed 104 weeks, study length 104 weeks) was 258 mg/kg/day. For the same compound, the TD50 (rat, strain Charles River CD (Sprague-Dawley), males, by gavage, site: thyroid gland, lesion: follicular-cell adenoma, dosed 104 weeks, study length 104 weeks) was 125 mg/kg/day.
In the case of `CCN(N)C=O`, the TD50 (mouse, strain Swiss albino, females, in drinking water, site: blood vessels, lesion: several types, types named in the paper, dosed 61 weeks, study length 61 weeks) is reported as 2.49 mg/kg/day, the TD50 (mouse, strain Swiss albino, females, in drinking water, site: lung, lesion: several types, types named in the paper, dosed 61 weeks, study length 61 weeks) is reported as 2.52 mg/kg/day and the TD50 (mouse, strain Swiss albino, males, in drinking water, site: blood vessels, lesion: several types, types named in the paper, dosed 60 weeks, study length 60 weeks) is reported as 3.55 mg/kg/day. For the same compound, the TD50 (mouse, strain Swiss albino, males, in drinking water, site: gall bladder, lesion: several types, types named in the paper, dosed 60 weeks, study length 60 weeks) was 47.4 mg/kg/day, the TD50 (mouse, strain Swiss albino, males, in drinking water, site: liver, lesion: several types, types named in the paper, dosed 60 weeks, study length 60 weeks) was 17.7 mg/kg/day and the TD50 (mouse, strain Swiss albino, males, in drinking water, site: lung, lesion: several types, types named in the paper, dosed 60 weeks, study length 60 weeks) was 3.19 mg/kg/day. The TD50 (mouse, strain Swiss albino, males, in drinking water, site: preputial gland, lesion: several types, types named in the paper, dosed 60 weeks, study length 60 weeks) was 50.8 mg/kg/day.
